Measured values published in US12370235B2, “Synthetic, non-natural antimicrobial peptides inspired by Staphylococcus auricularis delta toxin” (University of Saskatchewan, priority 2021, dated 2025).
Ends that are not written are not given here.

How the values were obtained:
[1] = system: Mannheimia haemolytica ATCC 33393; experiment: MIC, broth dilution; type: cell-based
Method in brief: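 Peptides (95% purity) in 2-fold dilution series were mixed with M. haemolytica diluted to OD 6×10^−4 in cation-adjusted Mueller Hinton broth and incubated standing overnight at 37 °C. MIC was the lowest concentration with no visible growth.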

C. albicans MYA-2876 = experiment: MIC, YPD broth; type: cell-based, Candida albicans; settings: Table 8
Method in brief: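 Minimum inhibitory concentrations against Candida albicans were determined in YPD broth (10 g/L yeast extract, 20 g/L peptone, 20 g/L dextrose) using peptides of 95% purity. A 180 μl volume of diluted yeast was combined with 20 μl of peptide in a 2-fold dilution series in 96-well plates, with sterile water as control, then incubated standing overnight at 37° C.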

[2] = system: Candida duobushaemulonii AR 392; experiment: MIC, YPD broth, CDC and FDA AR Candida isolate panel; type: cell-based; settings: Table 9 top part: titrations from 1.56 to 100 μg/mL
Method in brief: (§1)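 Peptide purity was 95%. Doubling dilutions were tested against yeast set at an optical density of […], with overnight standing incubation at 37° C and a sterile-water control.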

Kodamae ohmeri AR 396 = experiment: as above; type: cell-based; settings: Table 9 top part: titrations from 1.56 to 100 μg/mL
Method in brief: as §1

[3] = Circular dichroism spectroscopy; type: physicochemical; settings: CD, 50% (v/v) TFE
Method in brief: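 Secondary structure of peptides dissolved in water at 0.3–0.5 mg/mL was assessed by CD. Spectra were recorded from 180 to 260 nm at room temperature in a 0.1 cm quartz cuvette; water and 50% (v/v) TFE conditions were compared.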

SspA protease = SspA protease (Staphylococcus aureus, UniProt P0C1U8); experiment: SspA protease treatment, LC/MS analysis; type: in vitro ADME; settings: in vitro, 37° C., ˜5 hours
Protocol: (§2) SspA protease treatment. SspA protease was resuspended at 2 mg/mL in 100 mM HEPES, pH 7.8. Proteolysis was achieved by incubation of 50 μg PSMs at 37° C. for ˜5 hours with 0.2 mg/mL SspA. The antimicrobial activity of the proteolytic products were assayed by spotting a 5 μL (˜45 μg) from each treated peptide on each test microorganism as described above.
HPLC/MS analysis. High performance liquid chromatography coupled to mass spectrometry (HPLC-MS) was conducted to assess the proteolytic cleavage of synthetic PSMs by the SspA protease, as described above. Both treated samples and untreated controls were incubated at 37° C. for 5 hours, and then frozen until HPLC/MS analysis. An Agilent Infinity II 1260 HPLC outfitted with a Phenomenex Lune C5 column (4.6×150 mm, 5 μm) was used to separate the peptide fragments using a binary solvent system consisting of solvent A (water, 0.05% formic acid) and solvent B (acetonitrile, 0.05% formic acid) operating at 0.7 mL/min. A 5 μl volume (˜4.5 μg) of each sample was injected at 10% solvent B, followed by a two-step gradient elution from 10 to 50% solvent B in 30 minutes, then 50 to 100% B in 10 minutes. The HPLC was coupled to an Advion CMS(L) single quadrupole mass detector through an electrospray ionization source. A line splitter from the HPLC to ESI source was used to deliver sample to the mass detector at 0.3 mL/min. An Advion expression-L CMS detector was used at low temperature and fragmentation settings: capillary temperature: 135° C., capillary voltage 120 V, source voltage offset 20 V, source gas temperature 135° C. and ESI voltage 3500 V. The range of ions detected was between 100 and 2,000 m/z.

M. luteus ATCC 4698 = experiment: MIC, broth dilution; type: cell-based, Micrococcus luteus; settings: Table 4; liquid broth
Protocol: MIC determination. MICs were measured using peptides with 95% purity. For bacterial studies, cation-adjusted Mueller Hinton (MH) broth was used as the growth medium whereas Yeast Peptone Dextrose (YPD; 10 g/L yeast extract, 20 g/L peptone, 20 g/L dextrose) was used for Candida spp. and other yeast. Microorganisms were diluted to an optical density of […] in MH or YPD broth and a 180 μl volume was mixed with 20 μl of peptide arrayed as a 2-fold dilution series in a flat-bottom 96-well microtitre plate. A control was performed using 20 μl of sterile water. Plates were incubated as standing cultures overnight at 37° C.
Determination of minimum inhibitory concentrations. The MICs were measured for bioactive peptides identified from the initial screen. For bacterial studies, cation-adjusted Mueller Hinton (MH) broth was used as the growth medium whereas YPD was used for C. albicans. Bacterial cultures were diluted to a OD value of 6×10^−4 in MH broth and a 180 μl volume was mixed with 20 μl of peptide arrayed as 2-fold dilution series in a 96-well plate. For the positive control, 20 μl of sterile water was used. Plates were incubated as standing cultures overnight at 37° C. The lowest peptide concentration that resulted no observed microbial growth after an overnight treatment was defined as the MIC.

S. aureus ATCC 29213 [4] = experiment: MIC, broth dilution; type: cell-based, Staphylococcus aureus; settings: for MIC (μg/mL) S. aureus: liquid broth
Method in brief: (§3)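 Peptides (95% purity) were serially diluted 2-fold and mixed with bacteria diluted to OD 6×10^−4 in cation-adjusted Mueller Hinton broth. Standing cultures were incubated overnight at 37° C. MIC was the lowest peptide concentration with no observed growth.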

S. aureus ATCC 29213 [5] = experiment: Spot-on-lawn assay; type: cell-based, Staphylococcus aureus; settings: 50 μg peptide spotted on agar
Protocol: Spot-on-lawn assay. For the initial screen, peptides of ≥70% purity were used. Each peptide was resuspended in sterile water to a concentration of 10 mg/ml. To determine antimicrobial activities a spot-on-lawn assay was performed. M. luteus and S. aureus were used as indicator strains. To prepare test organisms, the optical density (OD) of overnight cultures were measured and the organisms were diluted to an initial OD of 0.05 in soft nutrient agar (0.4% w/v) at 50° C. Next, 3 mL of soft agar containing a test organism was overlaid on a solid 1.5% w/v nutrient agar plate (LB). A total of 50 μg of each peptide was spotted on the inoculated surface and plates were incubated for 16 to 48 h before being examined for zones of inhibition.
as §2

[6] = system: S. aureus ATCC 33592 (MRSA SCCmec type III); experiment: MIC, broth dilution; type: cell-based, Staphylococcus aureus; settings: Table 5; STIP3 variants, highest concentration 100 μg/mL
Method in brief: as §3

[7] = system: S. aureus ATCC BAA-1683 (MRSA SCCmec type IV); experiment: MIC, broth dilution; type: cell-based, Staphylococcus aureus; settings: Table 5; STIP3 variants, highest concentration 100 μg/mL
Method in brief: as §3

[8] = system: S. aureus ATCC BAA-2094 (MRSA SCCmec type V); experiment: MIC, broth dilution; type: cell-based, Staphylococcus aureus; settings: Table 5; STIP3 variants, highest concentration 100 μg/mL
Method in brief: as §3

[9] = system: S. aureus ATCC BAA-2313 (MRSA SCCmec type XI); experiment: MIC, broth dilution; type: cell-based, Staphylococcus aureus; settings: Table 5; STIP3 variants, highest concentration 100 μg/mL
Method in brief: as §3

[10] = system: S. aureus ATCC BAA-41 (MRSA SCCmec type II); experiment: MIC, broth dilution; type: cell-based, Staphylococcus aureus; settings: Table 5; STIP3 variants, highest concentration 100 μg/mL
Method in brief: as §3

[11] = system: S. aureus ATCC BAA-42 (MRSA SCCmec type VI); experiment: MIC, broth dilution; type: cell-based, Staphylococcus aureus; settings: Table 5; STIP3 variants, highest concentration 100 μg/mL
Method in brief: as §3

[12] = system: S. aureus ATCC BAA-44 (MRSA SCCmec type I); experiment: MIC, broth dilution; type: cell-based, Staphylococcus aureus; settings: Table 5; STIP3 variants, highest concentration 100 μg/mL
Method in brief: as §3

Candida krusei AR 397 = experiment: MIC, YPD broth, CDC and FDA AR Candida isolate panel; type: cell-based; settings: Table 9 top part: titrations from 1.56 to 100 μg/mL
Method in brief: as §1

[13] = system: Saccharomyces cerevisiae AR 399; experiment: as above; type: cell-based; settings: Table 9 top part: titrations from 1.56 to 100 μg/mL
Method in brief: as §1

[14] = system: Saccharomyces cerevisiae AR 400; experiment: as above; type: cell-based; settings: Table 9 top part: titrations from 1.56 to 100 μg/mL
Method in brief: as §1

[15] = Table 11, highest concentration 25 μg/mL

Sequence of SspA protease (P0C1U8 69-336): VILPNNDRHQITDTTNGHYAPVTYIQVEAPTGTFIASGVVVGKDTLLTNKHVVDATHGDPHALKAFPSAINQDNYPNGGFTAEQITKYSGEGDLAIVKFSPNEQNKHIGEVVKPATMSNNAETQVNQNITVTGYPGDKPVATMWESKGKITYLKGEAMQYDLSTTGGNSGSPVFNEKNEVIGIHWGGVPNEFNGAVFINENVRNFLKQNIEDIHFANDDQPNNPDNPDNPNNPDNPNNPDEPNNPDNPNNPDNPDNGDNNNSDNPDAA

| Substance | MIC (μg/mL) M. haemolytica [1, 15] | MIC C. albicans MYA-2876 (C. albicans MYA-2876) [µg/mL] | MIC (μg/mL) Candida duobushaemulonii AR 392 [2] | MIC (μg/mL) Kodamae ohmeri AR 396 (Kodamae ohmeri AR 396) | α helicity (%) [3] [%] | MIC (μg/mL) M. luteus (M. luteus ATCC 4698) [µg/mL] | MIC (μg/mL) S. aureus (S. aureus ATCC 29213 [4]; Table 4) | MIC (μg/mL) M. haemolytica ([1]; Table 10, liquid broth) [µg/mL] | inhibition of S. aureus, spot-on-lawn (S. aureus ATCC 29213 [5]) | further results |
| --- | --- | --- | --- | --- | --- | --- | --- | --- | --- | --- |
| H-MTKDIVETVGGLVKWILDTVKKFA [δ-toxin (df), reference compound] | > (> symbol indicates that no inhibition was observed at the highest concentration of peptide tested: 25 μg/mL) | 100 | > (MIC values reported at the top of the table (above the double line) are based on titrations from 1.56 to 100 μg/mL) | > (MIC values reported at the top of the table (above the double line) are based on titrations from 1.56 to 100 μg/mL) | 87 | – | – | – | – | susceptibility to SspA cleavage (SspA protease): susceptible to SspA cleavage in vitro |
| TVGALVKWILDTVKKFA [G4A, TVGALVKWILDTVKKFA] | – | – | – | – | – | 12.5 | >^b (> = >200 μg/mL (maximum concentration tested)) | 50 | observed to inhibit S. aureus | MIC (μg/mL) S. aureus (S. aureus ATCC 29213 [4]; Table 10): >^b (the use of > indicates an MIC > 200 μg/mL; the maximum concentration tested) |
| TVGGLVKWILATVKKFA [STIP3-2, TVGGLVKWILATVKKFA] | 25 µg/mL | 100 | > (MIC values reported at the top of the table (above the double line) are based on titrations from 1.56 to 100 μg/mL) | 100 µg/mL | 50 | 3.13 | 100 µg/mL | 50 | observed to inhibit S. aureus | MIC S. aureus ATCC 29213 (S. aureus ATCC 29213 [4]; Table 5, STIP3 variants, highest concentration 100 μg/mL): 100 µg/mL; MIC S. aureus ATCC 33592 (III) [6]: 50 µg/mL; MIC S. aureus ATCC BAA 1683 (IV) [7]: 50 µg/mL; MIC S. aureus ATCC BAA 2094 (V) [8]: 50 µg/mL; MIC S. aureus ATCC BAA 2313 (XI) [9]: 50 µg/mL; MIC S. aureus ATCC BAA 41 (II) [10]: 100 µg/mL; MIC S. aureus ATCC BAA 42 (VI) [11]: 50 µg/mL; MIC S. aureus ATCC BAA 44 (I) [12]: 100 µg/mL; MIC (μg/mL) Candida krusei AR 397 (Candida krusei AR 397): 50 µg/mL; MIC (μg/mL) Saccharomyces cerevisiae AR 399 [13]: 50 µg/mL; MIC (μg/mL) Saccharomyces cerevisiae AR 400 [14]: 100 µg/mL |
